Counter-ions that a name gives are not always drawn.
Key:
Solubility (qualitative) = format: physicochemical; settings: for solubility in sodium hydroxide / alkaline solutions: aqueous sodium hydroxide or alkaline solutions; for solubility in hydrochloric acid: (diluted) hydrochloric acid
[1] = pH of the aqueous solution; format: physicochemical; settings: dissolved in the previously-calculated amount of sodium hydroxide
male mice (strain CD) = assay: Acute toxicity (LD50, Litchfield and Wilcoxon); format: in vivo; settings: intraperitoneal, 8 days survey
Source text: The acute toxicity of these compounds has been determined on batches of male mice (strain CD) weighing about 20 g. They received the compounds to be tested at increasing doses either intraperitoneally or orally.
The animals are kept under survey for eight days. The deaths when present are numbered.
The average lethal dosage is graphically calculated according to the method of Litchfield and Wilcoxon.

Compound | solubility in sodium hydroxide / alkaline solutions (Solubility (qualitative)) | further results
CCC(OC(c1ccc(N2CCCCC2)cc1)C(F)(F)F)C(=O)O (racemic) [Example XIV hydrochloride, dl-2-[1-(4-piperidinophenyl)-2-trifluoroethoxy]butyric acid] |  | solubility in water (Solubility (qualitative)): freely soluble in water
CCC(OC(c1ccc(N2CCOCC2)cc1)C(F)(F)F)C(=O)O (racemic) [Example XV hydrochloride, dl-2-[1-(4-morpholinophenyl)-2-trifluoroethoxy]butyric acid] |  | solubility in water (Solubility (qualitative)): soluble in water
CC(OC(c1ccccc1)C(F)(F)F)C(=O)O (racemic) [IV, dl-α-(2,2,2-trifluoro-1-phenylethoxy)propionic acid] | dissolves in the stoichiometric amount of sodium hydroxide | 
CCC(OC(c1ccc(Oc2ccc(Cl)cc2)cc1)C(F)(F)F)C(=O)O (racemic) [XII, dl-2-[1-(4-chlorophenoxyphenyl)-2,2,2-trifluoroethoxy]butyric acid] | soluble in dilute sodium hydroxide solutions | 
O=C(O)C(OC(c1ccccc1)C(F)(F)F)c1ccccc1 (racemic) [XVII, dl-2-(1-phenyl-2-trifluoroethoxy)phenyl acetic acid] | soluble in the dilute solutions of sodium hydroxide | 
CCC(OC(c1cccs1)C(F)(F)F)C(=O)O (racemic) [XVIII, dl-2-[1-(thienyl-2)-2,2,2-trifluoroethoxy]butyric acid] | soluble in dilute solutions of sodium hydroxide | 
CCC(OC(c1cccc2ccccc12)C(F)(F)F)C(=O)O (racemic) [XXI, Dl-2-[(naphtyl-1)-2,2,2-trifluoroethoxy]butyric acid] | soluble in the previously-calculated amount of sodium hydroxide | pH value of the aqueous solution [1]: 7-8
CCC(OC(c1ccc2ccccc2c1)C(F)(F)F)C(=O)O (racemic) [XXII, dl-2-[1-(naphtyl-2)-2,2,2-trifluoroethoxy]butyric acid] | soluble in the previously-calculated amount of sodium hydroxide | 
CCC(OC(c1ccc(N2CCCCCC2)cc1)C(F)(F)F)C(=O)O (racemic) [XXIV, dl-2-[[4-(1-hexamethyleneimino)phenyl]-2,2,2-trifluoroethoxy] butyric acid] | soluble in the dilute aqueous solutions of sodium hydroxide | solubility in hydrochloric acid (Solubility (qualitative)): insoluble in diluted hydrochloric acid
CCC(OC(c1ccc(N2CCCCCCC2)cc1)C(F)(F)F)C(=O)O (racemic) [XXV, dl-2-[[4-(heptamethyleneimino-1)phenyl-2,2,2-trifluoroethoxy)] butyric acid] | soluble in the aqueous solutions of sodium hydroxide | solubility in hydrochloric acid (Solubility (qualitative)): insoluble in hydrochloric acid
CCC(OC(c1ccc(Cl)cc1)C(F)(F)F)C(=O)O (single isomer, unassigned) [Example IX (acid, isomer β), α-[2,2,2-trifluoro-1-(p-chlorophenylethoxy]butyric acid (isomer β)] | soluble in the previously-calculated amount of sodium hydroxide | 
CCC(OC(c1ccccc1)C(F)(F)F)C(=O)O (stereo not drawn) [Example II, α-(2,2,2-trifluoro-1-phenyl-1-ethoxy)butyric acid] | soluble in the previously-calculated amount of sodium hydroxide in aqueous solution | 
CCC(OC(c1ccc(Cl)cc1)C(F)(F)F)C(=O)O (stereo not drawn) [Example V (1), α-[2,2,2-trifluoro-1-(4-chlorophenyl)ethoxy]butyric acid] | soluble in an aqueous solution of sodium hydroxide | 
CCC(OC(c1ccc(OC)cc1)C(F)(F)F)C(=O)O (stereo not drawn) [Example V (4-methoxyphenyl), α-[2,2,2-trifluoro-1-(4-methoxyphenyl)ethoxy]butyric acid] | soluble in alkaline solutions | solubility in water (Solubility (qualitative)): insoluble in water
CCC(OC(c1ccccc1)C(F)(F)F)C(=O)NO (stereo not drawn) [Example VI, α-(2,2,2-trifluoro-1-phenylethoxy)butyryl hydroxamic acid] | soluble in the previously-calculated amount of sodium hydroxide | 
CCC(OC(c1ccccc1)C(F)(F)F)C(=O)N1CCOCC1 (stereo not drawn) [Example VII, 4-[α-(2,2,2-trifluoro-1-phenylethoxy)butyryl]morpholine] |  | solubility in common organic solvents (Solubility (qualitative); common organic solvents): soluble in the common organic solvents; solubility in water (Solubility (qualitative)): insoluble in water
CCC(OC(c1ccccc1)C(F)(F)F)C(=O)N1CCCCC1 (stereo not drawn) [VIII, 1-[α-(2,2,2-trifluoro-1-phenylethoxy)butyryl]piperidine] |  | solubility in water (Solubility (qualitative)): insoluble in water
dl-2-[1-(p-chlorophenylethoxy)-2,2,2-trifluoroethoxy] butyric acid |  | mean lethal dose (LD50) (male mice (strain CD)): about 400 mg/kg

Reference: patent US4288453A, “Derivatives of arylalkanoic acids, compositions and use” (Science Union et Cie, priority 1977, dated 1981)
